This note sets out measurements from patent US4839387A, “Derivative of thiazolidine-4-carboxylic acid, its preparation and pharmaceutical compositions containing it” (Poli Industria Chimica S.P.A., priority 1987, dated 1989).

Non-standard residues stand in square brackets, D forms with d. Residues, ends and D or L forms follow the SMILES beside them. pGlu = O=C1CC[C@@H](C(=O)O)N1; Thz = O=C(O)[C@@H]1CSCN1

Experiment [1] relates to T cells forming rosettes with sheep red blood cells. As to the kind of experiment: T-cells forming rosette with sheep red blood cells. In kind it is in vivo, mouse. The settings on record: for No. rosette/10^6 spleen cells Var. %: versus controls. On the procedure:
In the mouse, a cytotoxic-kind of hypersensivity reaction, evaluated in the test of T cells forming rosettes with sheep red blood cells, was used (S.D. Wilson Immunology, 1971, 21, 233). […]
CD-I male mice weighing about 25 g are treated with PGTCA for 8 days. After 4 days from the start of the treatment the animals were immunized with 5×10^8 sheep red blood cells in 0.2 ml of PBS i.p. The rosette test was carried out 6 days after the immunization. The mice were killed and the spleen was removed and placed in ice cold Hank solution, triturated, homogenized and gauze filtered.
6×10^7 /ml of spleen cells +100 /μl of red blood cell suspension 3×10^8 /μul were mixed in 0.8 ml of Hank and stirred for 1 min.
The samples were incubated for 24 h at 4° C. without stirring and then, after stirring, the number of rosette forming cells/ml was determined by the Burker apparatus.

For experiment [2], the system named is male rat. Kind of experiment: Sexual behaviour of the male rat. In kind it is in vivo. The conditions noted are these: latencies and frequences of sexual acts.
The mark [3] stands for this setting: Mice not sensitized with red blood cells, 100 mg/kg b.i.d. i.p. for 8 days.

Consider `O=C1CC[C@@H](C(=O)N2CSC[C@H]2C(=O)O)N1` [PGTCA, 3-L-pyroglutamyl-Lthiazolidine-4-carboxylic acid] ([pGlu]-[Thz]-OH), for which the “No. rosette/10^6 spleen cells m ± E.S.” value in experiment [1] (setting [3]) is reported as 790 ± 170 rosette/10^6 spleen cells. Also, the “No. rosette/10^6 spleen cells Var. %” value in experiment [1] (setting [3]) is -12%; in experiment [1] (Mice sensitized with red blood cells, 100 mg/kg b.i.d. i.p. for 8 days), “+41%”. The “rosette number in comparison with the control” value in experiment [1] (not sensitized animals) was “no significant change”; in experiment [1] (sensitized animals), “significant increase”. Further, the sexual behaviour result in experiment [2] is recorded as “favourable influence”.
